Measurements taken from US11466020B2, “Compounds and compositions for inhibition and elimination of Zika infection and uses for same” (Cornell University, priority 2017, dated 2022).

What was measured:
hNPCs = assay: hNPC viability, proliferation, apoptosis and identity; format: cell-based, human; settings: 20 μM Merbromin, 72 h after ZIKV infection
Protocol: (A) Scheme of high content chemical screen. (B) Chemical structure of hit compounds. (C) Inhibitory curve and IC50 of HH or AQ on hNPCs (n=6). (D-H) Immunocytochemistry analysis (D), the quantification of the infection rate (E), the quantification of proliferation rate (F), the quantification of cell apoptosis rate (G) and the normalized cell viability (H) of hNPCs at 72 h after ZIKV (MR 766 strain) infection with or without drug treatment. Scale bars, 100 μm. The ZIKV infection rate is defined as the percentage of ZIKV E^+ cells. The proliferation rate is defined as the percentages of Ki67^+ cells. The cell apoptosis rate was defined as the percentage of cleaved-Caspase 3/CAS3^+ cells. The normalized cell viability was calculated by dividing the total cell number of each condition by the total cell number under mock infection conditions. (n=6). (I) qRT-PCR analysis to monitor the total ZIKV vRNA in the supernatant of hNPC cultures at 72 h after ZIKV infection with or without drug treatment. (J) Vero cell reinfection assay to monitor the ZIKV infectious particles in the supernatant of hNPC cultures with or without drug treatment. To perform the Vero cell reinfection assay, hNPCs at 72 h after ZIKV infection were washed three times and changed to drug free medium for an additional 24 h. Vero cells were infected with the supernatant collected from hNPCs for 2 h and changed to virus free medium for an additional 24 h. Vero cells were stained with antibody against ZIKV E and DAPI. Scale bars, 200 μm. (n=3). (K) Quantification of ZIKV infectious particles produced by ZIKV-infected hNPCs with or without compound treatment by the Vero cell reinfection assay. (L) Heatmap analysis of mock-infected hNPCs treated with DMSO (mock); mock infected hNPCs treated with 25 μM HH (HH), mock-infected hNPCs treated with 15 μM AQ (AQ), ZIKV (MR766 strain, MOI=0.125) infected hNPCs treated with DMSO (ZIKV+DMSO); ZIKV-infected hNPCs treated with 25 μM HH (ZIKV+HH), and ZIKV-infected hNPCs treated with 15 μM AQ (ZIKV+AQ). […] (M and N) Immunocytochemistry analysis (M) and quantification of the infection rate (N) of hNPCs at 72 h after ZIKV (PRVABC59 strain) infection with or without drug treatment (n=6). Scale bars, 100 μm. p values were calculated by one-way repeated measures ANOVA with a Bonferroni test for multiple comparisons. *p<0.05, **p<0.01 and ***p<0.001.
(A) Scheme to evaluate the elimination of ZIKV. At day 0, hNPCs were infected with ZIKV for 2 h. After removal of ZIKV infection medium, hNPCs were treated with drug candidates. At day 3, the culture medium was changed to fresh medium without compounds. The cells were maintained in drug-free culture until day 6 and used for immunohistochemistry and qRT-PCR. (B and C) Inhibitory curve and IC50 of HH calculated based on the infection rate (B) and normalized cell viability (C) (n=6). (D and E) Immunocytochemistry analysis (D) and the quantification of infection rate, cell apoptosis rate, and total cell number (E) of hNPCs on day 3 and day 6. Cells was fixed and stained with cleaved Caspase-3 (CAS3), ZIKV E and DAPI. Scale bars, 100 μm. (F) qRT-PCR analysis to monitor the total ZIKV vRNA in the supernatant of hNPC cultures on day 6. Scale bars, 200 μm. (n=3). (G) Vero cell reinfection assay to monitor the infective ZIKV vRNA in the supernatant of hNPC cultures at day 6 after ZIKV infection. Scale bars, 200 μm. (n=3). (H) Quantification of ZIKV infectious particles produced by ZIKV-infected hNPCs at day 6 by the Vero cell reinfection assay. (I) hNPCs with or without ZIKV infection treated with HH maintain hNPC marker expression and differentiation capacity. hNPCs with or without ZIKV MR766 infection were treated with 25 μM HH or DMSO for 3 days and then stained for SOX2, NESTIN and with DAPI. hNPCs with or without ZIKV infection and treated with HH or DMSO for 3 days were differentiated to cortical neurons. The cortical neurons were then fixed and stained for MAP2, TUJ1 and with DAPI. Scale bars, 100 μm. (n=3). […]

ZIKV MR766 = assay: Inhibition of ZIKV infection of hNPCs (high content screen / inhibitory curve, ZIKV E staining); format: cell-based, Zika virus; settings: 20 μM Merbromin, 72 h after ZIKV infection
Protocol: A high content chemical screen identifies compounds that inhibit ZIKV infection of hNPCs. To identify drugs that inhibit ZIKV infection, we screened the Prestwick library that includes 1120 FDA-approved drug and drug candidates, selected for known bioavailability and safety in humans. To perform the screen, hNPCs seeded in 384-well plates were treated with each compound from the library or vehicle control (DMSO) for 1 hour, followed by addition of ZIKV MR766 at a MOI=0.125. After two hour of inoculation with ZIKV, the virus-containing medium was replaced by fresh virus-free medium and compounds were replenished for each well (See Methods). After an additional three days of culture, cells were fixed and stained with antibodies against the ZIKV envelop protein (ZIKV E) and a cell proliferation marker Ki67 (FIG. 1A). The percentages of ZIKV E^+ cells, Ki67^+ cells and total cell number were quantified by an automated imaging and analysis system. A two dimensional analysis was performed to choose the primary hit compounds (FIG. 5A). The X-axis represents the fold change of total cell number, which was calculated by dividing the total cell number of the chemical-treated well by the average total cell number of DMSO-treated wells. The Y-axis represents the fold change of the percentage of ZIKV infected cells, which was calculated by dividing the percentage of cells expressing ZIKV E in each chemical-treated well by the average of the percentage of cells expressing ZIKV E from DMSO-treated wells. […] Based on the fold change of the percentage of ZIKV infection, the signal-to-basal (S/B) ratio is 4.2 and the coefficient of variation (CV) is 6.9%. The Z factor is 0.59 indicating a robust screening system.
hNPCs were plated on 96-well plates at 8.5×10^4/cm^2. After overnight incubation, hNPCs were infected with ZIKV (MR766 strain, MOI=0.125) for 2 h, and changed to virus-free medium. The cells were maintained in NPC medium with daily medium change. Three days later, the supernatant and cells were collected and used for assays. hESC-derived forebrain organoids were infected with ZIKV MR766 (5×10^5 PFU/ml) for 24 h. After removal of virus containing medium, forebrain organoids were maintained in forebrain organoid medium for an additional 3 or 17 days and then used for assays.
High-content Screen. hNPCs were dissociated and plated on Matrigel-coated 384-well plates for the chemical screen. […] DMSO was used as a negative control. ZIKV MR766 was added at MOI=0.125. After 2 hour infection, the supernatant was replaced with fresh medium and compounds from the same chemical library were added to the same wells. After an additional 3 days incubation, cells were fixed, stained with antibodies against ZIKV envelop protein (ZIKV E) and proliferation marker Ki67, and analyzed with the ImageXpress^MICRO Automated High-Content Analysis System. […] X-axis represents the fold change of total cell number, which was calculated by dividing the total cell number of the chemical treated well by the average of total cell number of DMSO treated wells. Y-axis represents the fold change of the percentage of ZIKV infection, which was calculated by dividing the percentage of ZIKV infection of the chemical treated well by the average of the percentage of ZIKV infection of DMSO treated wells. The compounds in which the fold change of total cell number >1 and the fold change of the percentage of ZIKV infection <20% were further evaluated. […]

Structure (SMILES): O=C([O-])c1ccccc1-c1c2cc(Br)c(=O)cc-2oc2[c]([Hg+])c([O-])c(Br)cc12.[Na+].[Na+].[OH-] [Merbromin]
- hNPC proliferation in ZIKV infected hNPCs (hNPCs): significantly increased
- total cell loss in ZIKV infected hNPCs (hNPCs): rescued the total cell loss
- ZIKV infection of hNPCs (ZIKV MR766): did not affect ZIKV infection
